Results as given in publication PMC6753139, “TRIM66 reads unmodified H3R2K4 and H3K56ac to respond to DNA damage in embryonic stem cells” (Nature Communications, 2019).
Where a chain is given by its changes, count along the chain named.

Columns and labels:
[1] = molecular target: T1, TRIM66-MUT968-1160 (Homo sapiens, UniProt O15016, C1161S/C1165S/C1270S/I1224T/L1137T/M1171K/V1273N/Y1166H); experiment: ITC, crystallization mutant protein; format: binding; settings: 25 °C, 20 mM Tris, 100 mM NaCl, pH 7.5, single measurement
T1 construct: contained residues 968 to 1160 with eight mutated residues; GST (N, cleaved yes); made in house; host or cells: Escherichia coli BL21 (DE3)
T1 sequence (O15016 1103-1295 L1137T/C1161S/C1165S/Y1166H/M1171K/I1224T/C1270S/V1273N): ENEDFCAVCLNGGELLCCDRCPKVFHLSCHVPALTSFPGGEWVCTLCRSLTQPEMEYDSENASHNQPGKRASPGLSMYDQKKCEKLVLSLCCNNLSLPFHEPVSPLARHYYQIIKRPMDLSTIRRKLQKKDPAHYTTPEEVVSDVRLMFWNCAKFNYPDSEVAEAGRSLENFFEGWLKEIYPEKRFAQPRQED
Experimental: The mutant protein of the TRIM66 PHD-Bromodomain used for the crystallographic study contained residues 968 to 1160 with eight mutated residues (L1002T, C1026S, C1030S, Y1031H, M1036K, I1089T, C1135S, and V1138N). The mutant protein was dialyzed using a buffer containing 20 mM Tris, 100 mM NaCl, and 5 mM DTT at pH 7.5 prior to the crystallographic study. The H3_1-12 peptide was dissolved in the same buffer and adjusted to pH 7.5 with a final concentration of 20 mM. Crystals of the free-state TRIM66-PHD-Bromo mutant were obtained by mixing 8 mg ml^−1 protein with an equal volume of crystallization buffer (30% w/v 5000 MME, 100 mM Tris base/hydrochloric acid pH 8.0, and 200 mM lithium sulfate) using the hanging drop vapor diffusion method at 20 °C. […]
The calorimetric experiments were performed at 25 °C using a MicroCal PEAQ-ITC. […] Peptide concentrations were estimated from the quantitative NMR experiments[73],[74]. […] The ITC data were subsequently analyzed using the MicroCal PEAQ-ITC analysis software. […]
combinational manner (Fig. 1d). To further figure out the binding mode between the TRIM66 PHD-Bromodomain and the united H3(1-15)-(48-57) K56ac peptide, we performed a NMR titration experiment and carefully analyzed the linewidth changes of TRIM66 -GSGS968-1160 (this protein is […]

[2] = molecular target: T2, TRIM66 965-1160 D971A (Homo sapiens, UniProt O15016, D1106A); experiment: ITC, point mutant; settings: 25 °C, pH 7.5, Weak binding = ITC curves cannot be fitted reliably
T2 construct: GST (N, cleaved yes); made in house; host or cells: Escherichia coli BL21 (DE3)
T2 sequence (O15016 1100-1295 D1106A): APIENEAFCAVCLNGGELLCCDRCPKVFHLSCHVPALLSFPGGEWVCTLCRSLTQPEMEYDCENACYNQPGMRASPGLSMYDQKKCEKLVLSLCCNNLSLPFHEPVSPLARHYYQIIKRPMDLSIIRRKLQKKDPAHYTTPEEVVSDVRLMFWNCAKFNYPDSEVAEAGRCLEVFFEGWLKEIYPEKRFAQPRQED
Experimental: (§1) We further investigated the role of the TRIM66 PHD-Bromodomain in safeguarding the genome. We first introduced a series of single amino acid mutations to the PHD domain at interaction interface and then performed corresponding ITC assays.
(§2) The calorimetric experiments were performed at 25 °C using a MicroCal PEAQ-ITC. The proteins were dialyzed using a buffer containing 20 mM Tris and 100 mM NaCl at pH 7.5. Lyophilized peptides were dissolved in the same buffer and adjusted to pH 7.5 prior to use. Peptide concentrations were estimated from the quantitative NMR experiments[73],[74]. ITC measurements were performed via injection of 0.7–4 mM peptide into a cell containing 0.12 mM TRIM24-PHD-Bromo, 0.05 mM TRIM33 PHD-Bromo, and 0.05 or 0.11–0.15 mM TRIM66-PHD-Bromo (or its mutants). The ITC data were subsequently analyzed using the MicroCal PEAQ-ITC analysis software.

[3] = molecular target: T3, TRIM66 965-1160 D986A (Homo sapiens, UniProt O15016, D1121A); experiment: ITC, point mutant; settings: 25 °C, pH 7.5, Weak binding = ITC curves cannot be fitted reliably
T3 construct: GST (N, cleaved yes); made in house; host or cells: Escherichia coli BL21 (DE3)
T3 sequence (O15016 1100-1295 D1121A): T2 sequence (O15016 1100-1295 D1106A) with A7D, D22A
Experimental: as §1, §2

C[C@H](N)C(=O)N[C@@H](CCCNC(=N)N)C(=O)N[C@H](C(=O)N[C@@H](CCCCN)C(=O)N[C@@H](CCC(N)=O)C(=O)N[C@H](C(=O)N[C@@H](C)C(=O)N[C@@H](CCCNC(=N)N)C(=O)N[C@@H](CCCCN)C(=O)N[C@@H](CO)C(=O)N[C@H](C(=O)NCC(=O)O)[C@@H](C)O)[C@@H](C)O)[C@@H](C)O [H3_1-12]
Kd [1]: 19 ± 0.76 µM
KD [2]: Weak binding
KD [3]: Weak binding
